Laboratory results published in patent US6106805A, “Diagnostic composition containing an LH-RH antagonist for hysteroscopy” (Asta Medica Aktiengesellschaft, priority 1996, dated 2000).
Non-standard residues stand in square brackets, D forms with d. Residues, ends and D or L forms follow the SMILES beside them. dPhe(4-Cl) = N[C@H](Cc1ccc(Cl)cc1)C(=O)O; d2Nal = N[C@H](Cc1ccc2ccccc2c1)C(=O)O; dCit = NC(=O)NCCC[C@@H](N)C(=O)O; d3Pal = N[C@H](Cc1cccnc1)C(=O)O

How the values were obtained:
[1] = comparison with existing therapies; cited from earlier work
endometrium = test: Clinical experiment: endometrium measured by ultrasonics during cetrorelix pamoate treatment; format: in vivo, human
Experimental: (§1) Injection of 60 mg of cetrorelix on days 2 and 28 of the menstrual cycle.

E2 = test: Clinical experiment: E2 level during cetrorelix pamoate treatment; format: in vivo, human
Experimental: as §1

[2] = Tolerability of premedication, comparison with existing therapies; format: in vivo, human; conditions: short treatment period of from 7 to 10 days
myoma = test: Hysteroscopic and laparoscopic myoma resection after cetrorelix therapy; format: in vivo, human; conditions: 2 months after beginning the cetrorelix therapy
Experimental: Treatment of a patient with uterine fibrosis, which was operated on. Injection of 60 mg of cetrorelix on days 2 and 28 of the menstrual cycle.

[3] = Day 14 after 1st injection 60 mg
[4] = Day 21 after 1st injection 60 mg
[5] = Day 28, day of 2nd injection 60 mg

In the case of `C#C[C@]1(O)CC[C@H]2[C@@H]3CCC4=Cc5oncc5C[C@]4(C)[C@H]3CC[C@@]21C` [Danazol], the “side effects / drawbacks of existing therapies” value [1] is given as “acne, hirsutism and increase in weight”.

In the case of `CC(=O)N[C@H](Cc1ccc2ccccc2c1)C(=O)N[C@H](Cc1ccc(Cl)cc1)C(=O)N[C@H](Cc1cccnc1)C(=O)N[C@@H](CO)C(=O)N[C@@H](Cc1ccc(O)cc1)C(=O)N[C@H](CCCNC(N)=O)C(=O)N[C@@H](CC(C)C)C(=O)N[C@@H](CCCNC(=N)N)C(=O)N1CCC[C@H]1C(=O)N[C@H](C)C(N)=O` [cetrorelix pamoate] (Ac-[d2Nal][dPhe(4-Cl)][d3Pal]SY[dCit]LRP[dA]-NH2), the “endometrial growth during the treatment” value (endometrium; 60 mg on days 2 and 28 of the menstrual cycle, measured by ultrasonics) is reported as “did not exhibit any growth”, the Endometrium (endometrium; Day 7 after 1st injection 60 mg, patient with uterine fibrosis) is reported as 2 mm and the Endometrium (endometrium; [3]) is reported as “flat/even”. For the same molecule, the Endometrium (endometrium; [4]) was 3.1 mm, the Endometrium (endometrium; [5]) was “flat/even” and the Endometrium (endometrium; Day 42, after 2 injections of 60 mg (Day 0, Day 28)) was “flat/even”. For the same molecule, the Endometrium (endometrium; Day 55, end of the study, after 2 injections of 60 mg) was “flat/even”, the “onset of decrease of the thickness of the endometrial layer” value (endometrium; after injecting) was “begins to decrease immediately” and the E2 (E2; Day 0, day of 1st injection 60 mg (baseline)) was 25 pg/mL. The E2 (E2; Day 7 after 1st injection 60 mg) was < 5 pg/mL, the E2 (E2; [3]) was 17 pg/mL and the E2 (E2; [4]) was 40 pg/mL. It also gave an E2 (E2; [5]) of 88 pg/mL, an E2 (E2; Day 42, after 2 injections of 60 mg) of 25 pg/mL and an E2 (E2; Day 55, end of the study) of 73 pg/mL. The E2 (E2; Day of operation (07.05.96)) was 114 pg/mL, the side effects [2] was “no side effects” and the “blood loss at hysteroscopic and laparoscopic myoma resection” value (myoma) was “without any significant blood loss”.
